# Laboratory results from patent publication US10577363B2, “Substituted piperidine compounds” (EPIZYME, INC., priority 2014, dated 2020).
# Target: SMYD3 (Homo sapiens (Human), UniProt Q9H7B4)
# Test: SMYD3 biochemical assay (SPA, 3H-SAM methylation of MEKK2 protein substrate)
# Conditions: read-out: SMYD3 Biochem IC50 (μM)*
# Source text: S-adenosylmethionine (SAM), S-adenosylhomocysteine (SAH), Tris, Tween20, dimethylsulfoxide (DMSO), bovine skin gelatin (BSG), and Tris(2-carboxyethyl)phosphine hydrochloride solution (TCEP) were purchased from Sigma-Aldrich at the highest level of purity possible. ^3H-SAM was purchase from American Radiolabeled Chemicals with a specific activity of 80 Ci/mmol. 384-well opaque white OptiPlates and SPA beads (Perkin Elmer, catalog # RPNQ0013) were purchased from PerkinElmer.
# N-terminally GST-tagged MEKK2 (MAP3K2) protein corresponding to reference sequence AAF63496.3 was purchased from Life Technologies (catalog # PV4010). This protein was expressed in High Five insect cells and purified to >85% purity. Protein identity was confirmed by MS/MS analysis after proteolytic digestion. The protein sequence used was:
# Full-length human SMYD3 isoform 1 (BAB86333) was inserted into a modified pET21b plasmid containing a His6 tag and TEV and SUMO cleavage sites.
# E. coli (BL21 codonplus RIL strain, Stratagene) were transformed with plasmid pEPZ553 by mixing competent cells and plasmid DNA and incubating on ice for 30 minutes followed by heat shock at 42° C. for 1 minute and cooling on ice for 2 minutes. Transformed cells were grown and selected on LB agar with 100 μg/mL ampicillin and 17 μg/mL chloramphenicol at 37° C. overnight. A single clone was used to inoculate 200 mL of LB medium with 100 μg/mL ampicillin and 17 μg/mL chloramphenicol and incubated at 37° C. on an orbital shaker at 180 rpm. Once in log growth, the culture was diluted 1:100 into 2 L of LB medium and grown until OD600 was about 0.3 after which the culture was incubated at 15° C. and 160 rpm. Once OD600 reached about 0.4, IPTG was added to a final concentration of 0.1 mM and the cells were grown overnight at 15° C. and 160 rpm. Cells were harvested by centrifugation at 8000 rpm, for 4 minutes at 4° C. and stored at −80° C. for purification.
# The column was washed with Buffer B (Buffer A plus 20 mM imidazole) and His-tagged SMYD3 was eluted with Buffer C (Buffer A plus 300 mM imidazole). The His tag, TEV and SUMO cleavage sites were removed generating native SMYD3 by addition of ULP1 protein at a ratio of 1:200 (ULP1:SMYD3). Imidazole was removed by dialysis overnight in Buffer A. The dialyzed solution was applied to a second Nickel column and the native SMYD3 protein was collected from the column flow-through. The flow-through was dialyzed in Buffer D (25 mM Tris, 5% glycerol, 5 mM β-mercaptoethanol, 50 mM NaCl, pH7.8) and ULP1 was removed using a Q sepharose fast flow column.
# General Procedure for SMYD3 Enzyme Assays on MEKK2 Protein Substrate
# The assays were all performed in a buffer consisting of 25 mM Tris-Cl pH 8.0, 1 mM TCEP, 0.005% BSG, and 0.005% Tween 20, prepared on the day of use. […] DMSO (1 ul) was added to Columns 11, 12, 23, 24, rows A-H for the maximum signal control and 1 ul of SAH, a known product and inhibitor of SMYD3, was added to columns 11, 12, 23, 24, rows I-P for the minimum signal control. A cocktail (40 ul) containing the SMYD3 enzyme was added by Multidrop Combi (Thermo-Fisher). The compounds were allowed to incubate with SMYD3 for 30 min at room temperature, then a cocktail (10 ul) containing SAM and MEKK2 was added to initiate the reaction (final volume=51 ul). […] The assays were stopped by the addition of non-radiolabeled SAM (10 ul) to a final concentration of 100 uM, which dilutes the ^3H-SAM to a level where its incorporation into MEKK2 is no longer detectable. Radiolabeled MEKK2 was detected using a scintillation proximity assay (SPA). 10 uL of a 10 mg/mL solution of SPA beads in 0.5 M citric acid was added and the plates centrifuged at 600 rpm for 1 min to precipitate the radiolabeled MEKK2 onto the SPA beads. The plates were then read in a PerkinElmer TopCount plate reader to measure the quantity of ^3H-labeled MEKK2 as disintegrations per minute (dpm) or alternatively, referred to as counts per minute (cpm).
row,IC50 [µM],SMILES
1,7.16,"NC[C@H](Cc1ccc(O)c(Cl)c1)C(=O)N1CCC(NC(=O)c2cc(C3CC3)on2)CC1 [compound 64, (S)-N-(1-(3-amino-2-(3-chloro-4-hydroxybenzyl)propanoyl)piperidin-4-yl)-5-cyclopropylisoxazole-3-carboxamide]"
2,2.32,"C[C@H]1CN(C(=O)[C@@H](N)Cc2ccc(O)cc2)CCC1NC(=O)c1cc(C2CC2)on1 (stereo partly drawn) [compound 67, N-((3S)-1-(L-tyrosyl)-3-methylpiperidin-4-yl)-5-cyclopropylisoxazole-3-carboxamide]"
3,1.69,"C[C@@H]1CN(C(=O)[C@@H](N)Cc2ccc(O)cc2)CCC1NC(=O)c1cc(C2CC2)on1 (stereo partly drawn) [compound 68, N-((3R)-1-(L-tyrosyl)-3-methylpiperidin-4-yl)-5-cyclopropylisoxazole-3-carboxamide]"
4,12.4,"C[C@H]1CC(NC(=O)c2cc(C3CC3)on2)CCN1C(=O)CCN1CCCC1 (stereo partly drawn) [compound 69, 5-cyclopropyl-N-((2S)-2-methyl-1-(3-(pyrrolidin-1-yl)propanoyl)piperidin-4-yl)isoxazole-3-carboxamide]"
5,7.73,"C[C@@H]1CC(NC(=O)c2cc(C3CC3)on2)CCN1C(=O)CCN1CCCC1 (stereo partly drawn) [compound 70, 5-cyclopropyl-N-((2R)-2-methyl-1-(3-(pyrrolidin-1-yl)propanoyl)piperidin-4-yl)isoxazole-3-carboxamide]"
6,2.54,"C[C@H]1CC(NC(=O)c2cc(C3CC3)on2)CCN1C(=O)[C@H]1C[C@@H](N)C1 (stereo partly drawn) [compound 71, N-((2S)-1-((1s,3R)-3-aminocyclobutane-1-carbonyl)-2-methylpiperidin-4-yl)-5-cyclopropylisoxazole-3-carboxamide]"
7,2.72,"C[C@H]1CC(NC(=O)c2cc(C3CC3)on2)CCN1C(=O)[C@H]1C[C@H](N)C1 (stereo partly drawn) [compound 72, N-((2S)-1-((1r,3S)-3-aminocyclobutane-1-carbonyl)-2-methylpiperidin-4-yl)-5-cyclopropylisoxazole-3-carboxamide]"
8,7.31,"CCS(=O)(=O)N1CCC(NC(=O)c2cc(C3CC3)on2)C[C@H]1C (stereo partly drawn) [compound 75, 5-cyclopropyl-N-((2R)-1-(ethylsulfonyl)-2-methylpiperidin-4-yl)isoxazole-3-carboxamide]"
9,0.541,"CC[C@H]1CN(C(=O)CC2CCNCC2)CC[C@@H]1NC(=O)c1cc(C2CC2)on1 [compound 76, 5-cyclopropyl-N-((3S,4S)-3-ethyl-1-(2-(piperidin-4-yl)acetyl)piperidin-4-yl)isoxazole-3-carboxamide]"
10,20.4,"N[C@H](Cc1ccc(O)cc1)CN1CCC(NC(=O)c2cc(C3CC3)on2)CC1 [compound 79, (R)-N-(1-(2-amino-3-(4-hydroxyphenyl)propyl)piperidin-4-yl)-5-cyclopropylisoxazole-3-carboxamide]"
11,6.81,"CC1CN(C(=O)CCN)CCC1NC(=O)c1cc(C2CC2)on1 (centres unmarked) [compound 80, N-(1-(3-aminopropanoyl)-3-methylpiperidin-4-yl)-5-cyclopropylisoxazole-3-carboxamide]"
12,22.1,"C[C@@H]1CC(NC(=O)c2cc(C3CC3)on2)CCN1C(=O)CN (stereo partly drawn) [compound 81, 5-cyclopropyl-N-((2R)-1-glycyl-2-methylpiperidin-4-yl)isoxazole-3-carboxamide]"
13,10.5,"C[C@H]1C[C@@H](NC(=O)c2cc(C3CC3)on2)CCN1C(=O)CCN [compound 82, N-((2S,4S)-1-(3-aminopropanoyl)-2-methylpiperidin-4-yl)-5-cyclopropylisoxazole-3-carboxamide]"
14,6.6,"C[C@H]1C[C@H](NC(=O)c2cc(C3CC3)on2)CCN1C(=O)CCN [compound 83, N-((2S,4R)-1-(3-aminopropanoyl)-2-methylpiperidin-4-yl)-5-cyclopropylisoxazole-3-carboxamide]"
15,6.14,"C[C@@H]1CC(NC(=O)c2cc(C3CC3)on2)CCN1C(=O)CCN (stereo partly drawn) [compound 84, N-((2R)-1-(3-aminopropanoyl)-2-methylpiperidin-4-yl)-5-cyclopropylisoxazole-3-carboxamide]"
16,2.37,"C[C@H]1CC(NC(=O)c2cc(C3CC3)on2)CCN1C(=O)[C@@H]1CC[C@@H](N)C1 (stereo partly drawn) [compound 85, N-((2S)-1-((1R,3R)-3-aminocyclopentane-1-carbonyl)-2-methylpiperidin-4-yl)-5-cyclopropylisoxazole-3-carboxamide]"
17,2.56,"C[C@H]1CC(NC(=O)c2cc(C3CC3)on2)CCN1C(=O)[C@@H]1CC[C@H](N)C1 (stereo partly drawn) [compound 86, N-((2S)-1-((1R,3S)-3-aminocyclopentane-1-carbonyl)-2-methylpiperidin-4-yl)-5-cyclopropylisoxazole-3-carboxamide]"
18,3.25,"C[C@@H]1CC(NC(=O)c2cc(C3CC3)on2)CCN1C(=O)[C@H]1C[C@@H](N)C1 (stereo partly drawn) [compound 87, N-((2R)-1-((1s,3S)-3-aminocyclobutane-1-carbonyl)-2-methylpiperidin-4-yl)-5-cyclopropylisoxazole-3-carboxamide]"
19,5.33,"CN[C@H]1CC[C@H](C(=O)N2CCC(NC(=O)c3cc(C4CC4)on3)C[C@@H]2C)CC1 (stereo partly drawn) [compound 90, 5-cyclopropyl-N-((2S)-2-methyl-1-((1r,4S)-4-(methylamino)cyclohexane-1-carbonyl)piperidin-4-yl)isoxazole-3-carboxamide]"
20,3.91,"C[C@H]1CC(NC(=O)c2cc(C3CC3)on2)CCN1C(=O)CN1CCNCC1 (stereo partly drawn) [compound 91, 5-cyclopropyl-N-((2S)-2-methyl-1-(2-(piperazin-1-yl)acetyl)piperidin-4-yl)isoxazole-3-carboxamide]"
21,0.778,"C[C@@H]1CC(NC(=O)c2cc(C3CC3)on2)CCN1C(=O)CN1CCNCC1 (stereo partly drawn) [compound 92, 5-cyclopropyl-N-((2R)-2-methyl-1-(2-(piperazin-1-yl)acetyl)piperidin-4-yl)isoxazole-3-carboxamide]"
22,1.61,"CC[C@H]1CN(C(=O)C2CCC(N)CC2)CC[C@@H]1NC(=O)c1cc(C2CC2)on1 (stereo partly drawn) [compound 93, N-((3S,4S)-1-(4-aminocyclohexane-1-carbonyl)-3-ethylpiperidin-4-yl)-5-cyclopropylisoxazole-3-carboxamide]"
23,2.38,"CC[C@H]1CC(NC(=O)c2cc(C3CC3)on2)CCN1C(=O)[C@H]1CC[C@H](N)CC1 (stereo partly drawn) [compound 94, N-((2S)-1-((1r,4S)-4-aminocyclohexane-1-carbonyl)-2-ethylpiperidin-4-yl)-5-cyclopropylisoxazole-3-carboxamide]"
24,0.532,"C[C@@H]1CC(NC(=O)c2cc(C3CC3)on2)CCN1C(=O)[C@@H]1CC[C@@H](N)C1 (stereo partly drawn) [compound 95, N-((2R)-1-((1R,3R)-3-aminocyclopentane-1-carbonyl)-2-methylpiperidin-4-yl)-5-cyclopropylisoxazole-3-carboxamide]"

row,SMILES,IC50 [µM]
1,"N[C@H]1CC[C@H](C(=O)N2C3CCCC2CC(NC(=O)c2cc(C4CC4)on2)C3)CC1 (some centres unmarked) [compound 73, N-(9-((1r,4r)-4-aminocyclohexane-1-carbonyl)-9-azabicyclo[3.3.1]nonan-3-yl)-5-cyclopropylisoxazole-3-carboxamide]",5.35
2,"NC1CCC(C(=O)N2CCC(NC(=O)c3cc(C4CC4)on3)CC2c2ccccc2)CC1 (centres unmarked) [compound 89, N-(1-((1r,4r)-4-aminocyclohexane-1-carbonyl)-2-phenylpiperidin-4-yl)-5-cyclopropylisoxazole-3-carboxamide]",3.39
